Test results reported in patent US20250152569A1, “TREATMENT OF CELL PROLIFERATION-ASSOCIATED CONDITIONS USING A COMBINATION OF A CLB-B INHIBITOR AND AN ADDITIONAL THERAPEUTIC AGENT” (HOTSPOT THERAPEUTICS, INC., priority 2022, published 2025).

Assays:
Set-up in all cases: species or system female BALB/c mice
[1] = system: subcutaneous murine colorectal cancer model CT26.WT; experiment: In vivo efficacy study, subcutaneous murine colorectal cancer model CT26.WT (Example 4); settings: Day 16
Method: (§1) The objective of this study was to evaluate preclinically the in vivo therapeutic efficacy of HotSpot Therapeutics's Test Articles in the treatment of the subcutaneous murine Colorectal model CT26.WT in female BALB/c mice. Compound 29 test particles were delivered via PO. Compound 29 was assessed at various dose levels in combination with Oxaliplatin or Cabozantinib. Tumor volumes and body weight were measured three times per week after the initiation of treatment.
The CT26.WT tumor cells were maintained in vitro with RPMI-1640 medium supplemented with 10% fetal bovine serum at 37° C. in an atmosphere of 5% CO2 in air. The cells in exponential growth phase were harvested and quantitated by cell counter before tumor inoculation.
Each mouse was inoculated subcutaneously it the right lower flank region with 5×10^5 tumor cells in 0.1 ml of PBS mixed with Matrigel (1:1) for tumor development.
The randomization started when the mean tumor size reached approximately 86.42 mm^3. 60 mice were enrolled in the study. All animals were randomly allocated to 6 study groups, 10 mice in each group. Randomization was performed based on “Matched distribution” method (StudyDirector™ software, version 3.1.399.19)
The date of randomization was denoted as day 0.
The treatment was initiated on the same day of randomization (day 0) per study design.
(§2) After tumor cells inoculation, the animals were checked daily for morbidity and mortality. During routine monitoring, the animals were checked for any effects of tumor growth and treatments on behavior such as mobility, food and water consumption, body weight gain/loss (Body weights were measured twice per week after randomization), eye/hair matting and any other abnormalities. Mortality and observed clinical signs were recorded for individual animals in detail.
Tumor volumes were measured twice per week after randomization in two dimensions using a caliper, and the volume was expressed in mm^3 using the formula: “V=(L×W×W)/2, where V was tumor volume, L was tumor length (the longest tumor dimension) and W was tumor width (the longest tumor dimension perpendicular to L). Dosing as well as tumor and body weight measurements were conducted in a Laminar Flow Cabinet.
The body weights and tumor volumes were measured by using StudyDirector™ software (version 3.1.399.19).
For Group 01 and Group 03 were terminated when the mean tumor volume of the vehicle control group reaches 2000 mm^3 on day 16.
For Group 02, Group 04, Group 05 and Group 06 were performed for 3 weeks. The study was terminated on day 21 (Sep. 21, 2022).
To compare tumor volumes of different groups at a pre-specified day, we first used Bartlett's test to check the assumption of homogeneity of variance across all groups. When the p-value of Bartlett's test was >=0.05, we ran one-way ANOVA to test overall equality of means across all groups. If the p-value of the one-way ANOVA was <0.05, we further performed post hoc testing by running Tukey's HSD (honest significant difference) tests for all pairwise comparisons, and Dunnett's tests for comparing each treatment group with the vehicle group. When the p-value of Bartlett's test was <0.05, we ran Kruskal-Wallis test to test overall equality of medians among all groups. If the p-value the Kruskal-Wallis test was <0.05, we further performed post hoc testing by running Conover's non-parametric test for all pairwise comparisons or for comparing each treatment group with the vehicle group, both with single-step p-value adjustment.
In addition, we performed pairwise comparisons without multiple comparison correction and report nominal/uncorrected p-values directly from Welch's t-test or Mann-Whitney U test at each time point. Specifically, we first used Shapiro Wilk test to check the assumption of normal distribution for each group. When p-values of Shapiro Wilk tests of both groups in a pair are >0.05, we ran Welch's t-test, otherwise we ran Mann-Whitney U test, to obtain nominal p-values. […]

[2] = system: subcutaneous murine colorectal cancer model CT26.WT; experiment: In vivo efficacy study, CT26.WT model, combination with ALT-803 (Example 6); settings: Compound 29 30 mg/kg p.o. BID in combination with ALT-803 0.2 mg/kg i.p. QW; FIG. 5A, 5B
Method: as §1, with “of” for “of HotSpot Therapeutics's”, “ALT-803.” for “Oxaliplatin or Cabozantinib.”
The CT26.WT tumor cells will be maintained in vitro with RPMI-1640 medium supplemented with 10% fetal bovine serum at 37° C. in an atmosphere of 5% CO2 in air. The cells in exponential growth phase will be harvested and quantitated by cell counter before tumor inoculation. […]
as §2, with “will be” for “were”, “detail. […]” for “detail.”
(§3) The body weights and tumor volumes will be measured by using StudyDirector™ software (version 3.1.399.19). […]

[3] = system: subcutaneous murine colorectal cancer model CT26.WT; experiment: In vivo efficacy study, CT26.WT model, combination with Doxorubicin, Gemcitabine or Paclitaxel (Example 5)
Method: as §1, with “of” for “of HotSpot Therapeutics's”, “Doxorubicin, Gemcitabine” for “Oxaliplatin”, “Paclitaxel.” for “Cabozantinib.”
The CT26.WT tumor cells will be maintained in vitro with RPMI-1640 medium supplemented with 10% fetal bovine serum at 37° C. in an atmosphere of 5% CO2 in air. The cells in exponential growth phase will be harvested and quantitated by cell counter before tumor inoculation.
Each ach mouse will be inoculated subcutaneously in the right lower flank region with CT26 tumor cells (5×10^5) in 0.1 ml of PBS for tumor development.
The randomization will start when the mean tumor size reaches approximately 80-100 mm^3. […] Randomization will be performed based on “Matched distribution” method/“Stratified” method (Study Director™ software, version 3.1.399.19)/randomized block design. The date of randomization will be denoted as day 0. […]
as §2, with “will be” for “were”
Tumor volumes will be measured twice per week after randomization in two dimensions using a caliper, and the volume will be expressed in mm^3 using the formula: “V=(L×W×W)/2, where V is tumor volume, L is tumor length (the longest tumor dimension) and W is tumor width (the longest tumor dimension perpendicular to L). […]
as §3

[4] = single agent, Compound 29 60 mg/kg p.o. BID, Oxaliplatin 5 mg/kg i.p. Q4D, Cabozantinib 10 mg/kg p.o. QD
[5] = Compound 29 60 mg/kg p.o. BID in combination with Cabozantinib 10 mg/kg p.o. QD (Group 6)
[6] = Compound 29 60 mg/kg p.o. BID in combination with Oxaliplatin 5 mg/kg i.p. Q4D (Group 5)

Row | SMILES | T/C (%) [1, 4] [%] | TGI (%) [1, 4] [%] | Tumor Volume (mean ± SEM) [1, 4] [mm^3] | T/C (%) [1, 5] [%] | TGI (%) [1, 5] [%] | Tumor Volume (mean ± SEM) [1, 5] [mm^3] | T/C (%) [1, 6] [%] | TGI (%) [1, 6] [%] | Tumor Volume (mean ± SEM) [1, 6] [mm^3] | effect on tumor inhibition as compared to each of the agents as monotherapies [2] | effect on tumor inhibition as compared to each of the agents as monotherapies ([3]; Compound 29 60 mg/kg p.o. BID in combination with Doxorubicin 4 mg/kg i.v. Q4D, FIG. 2A, 2B) | effect on tumor inhibition as compared to each of the agents as monotherapies ([3]; Compound 29 60 mg/kg p.o. BID in combination with Gemcitabine 5 mg/kg i.p. Q3D, FIG. 3A, 3B) | effect on tumor inhibition as compared to each of the agents as monotherapies ([3]; Compound 29 60 mg/kg p.o. BID in combination with Paclitaxel 20 mg/kg i.p. QW, FIG. 4A, 4B)
1 | COc1cc2nccc(Oc3ccc(NC(=O)C4(C(=O)Nc5ccc(F)cc5)CC4)cc3)c2cc1OC [Cabozantinib, reference compound] | 30.55 | 69.45 | 772.01 ± 100.44 | – | – | – | – | – | – | – | – | – | –
2 | C[C@H]1CCCN(Cc2cc(C(F)(F)F)c3cn(-c4cccc(C5(Cc6nncn6C)COC5)c4)c(=O)n3c2)C1 [Compound 29] | 56.42 | 43.58 | 1425.65 ± 232.85 | 25.45 | 74.55 | 643.08 ± 59.79 | 35.94 | 64.06 | 908.21 ± 76.22 | improved effect on tumor inhibition | improved effect on tumor inhibition | improved effect on tumor inhibition | improved effect on tumor inhibition
3 | O=C1[O][Pt]2([NH][C@@H]3CCCC[C@H]3[NH]2)[O]C1=O [Oxaliplatin, reference compound] | 103.27 | −3.27 | 2609.42 ± 203.84 | – | – | – | – | – | – | – | – | – | –
